Experimental data as given in US20140296223A1, “METHOD FOR REGULATING SKIN PIGMENTATION” (THE GENERAL HOSPITAL CORPORATION, priority 2011, published 2014).

Experiments:
[1] = test system: Microphthalmia Transcription Factor (MITF); assay: TRPM1-luciferase reporter screen for MITF antagonists in Skme15 melanoma cells; format: cell-based, human; details: for Z-Score: screen, suppression of TRPM1-luciferase activity, Skme15 cells; for IC50: IC50 (described formally as qAC50), half-maximal suppression dose, unit inferred, text says potencies around 1 uM; for Conc. At Maximal Activity / Maximal Activity: dose titration; for Conc. At Maximal Activity: unit not given, in M (unit assumed); for Maximal Activity: maximal suppression of TRPM1-luciferase at any dose
Description: In order to carry out a successful MITF antagonist screen, the inventors utilized a TRPM1-luciferase reporter. […] Therefore, the TRPM1-luciferase reporter stably integrated into melanoma cells is effective for the screening assay. The use of melanoma cells, while less perfectly relevant than primary human melanocytes, afforded the advantages of speed and reproducibility for the screen.
In order to engineer a screen which broadly suppress MITF activity either by suppression of MITF expression or by inhibition of MITF activity, the inventors utilized a luciferase reporter containing the promoter of a strong direct transcriptional target of MITF, i.e., TRPM1 gene, the inventors have identified the active ingredients having the ability of inhibiting the expression or activation of Microphthalmia Transcription Factor (MITF) for medical or esthetic benefit. The inventors have previously identified the TRPM1 gene (also called “Melastatin”) as a direct target of MITF, which contains numerous MITF binding sites, and which directly responds in potent fashion to MITF overexpression (Miller A J, Du J, Rowan S, Hershey C L, Widlund H R, Fisher D E: Transcriptional regulation of the melanoma prognostic marker melastatin (TRPM1) by MITF in melanocytes and melanoma, Cancer Res 2004, 64:509-516). TRPM1 expression also correlates closely to MITF expression within human melanoma cell lines, as well as in clinical pigmented lesions (nevi and melanomas).
The TRPM1 promoter was ligated to the luciferase gene and inserted into a retroviral vector as well as a lentiviral vector. The lentiviral vector was used to infect primary human melanocytes, which then was subjected to a primary screen using the Broad Chemical Genetics core screening facility, and its natural products/extracts libraries. As backup, the retroviral vector was used to stably integrate into the genome of melanoma cells, which can be used for the identical small molecule screen. Screen optimization was carried out using forskolin and MSH as positive control small molecules (which upregulate cAMP and MITF expression (D'Orazio J A, Nobuhisa T, Cui R, Arya M, Spry M, Wakamatsu K, Igras V, Kunisada T, Granter S R, Nishimura E K, Ito S, Fisher D E: Topical drug rescue strategy and skin protection based on the role of Mc1r in UV-induced tanning, Nature 2006, 443:340-344)). Small molecules which suppress MSH induced TRPM1-luciferase without altering cell numbers or viability, represent initial “hits” in this screen. Negative control includes a constitutive luciferase vector within the same cells (eg driven by a constitutive promoter such as thymidine kinase promoter), to control for nonspecific inhibitors of basal transcriptional machinery-something which would otherwise be assessed in detail during secondary/tertiary analyses of candidate hits.
The human melanoma cell line Skme15 was utilized due to the advantageous growth properties as well as the inventors' prior experience that Skme15 expresses a typical level of MITF protein. […] Therefore, an integrated TRPM1-luciferase reporter was generated, and the subsequent cells were cloned twice (serially) to assure purity of the reporter cell population. Cells were maintained in drug selection to assure maintenance of the luciferase reporter (when drug was omitted, eventual loss of the luciferase signal was observed). Following re-cloning, distinct isolates were selected for further use on the basis of clonogenic growth on 384 well plates, as required for the small molecule screen. A positive control for suppression of TRPM1-luciferase signal utilized: a lentivirus encoding shRNA against MITF. […] The day-to-day variability in plating efficiency was analyzed, and found very high reproducibility in the line which was selected for further use in the screen.
The screen was carried out with a library from the Broad Institute comprising a mixture of natural products, known bioactives, and additional compounds (a total of about 13,000 compounds). […]

[2] = test system: Skme15; assay: Toxicity with fluorescence viability probe (CellTiter-Fluo Cell Viability Assay); format: cell-based, human; details: composite of the variation between drug-treated and control divided by the standard error
Description: Although the shape of the dose-response can vary among hits, the inventors chose to include all candidates which produce dose-dependent effects. The fourth criterion which was determined is the IC50 (described formally as qAC50) which represents the half-maximal suppression dose. Most of the candidate hits resided in the high nanomolar to low micromolar range by this criterion (all of these validation data are listed in Table 1). The fifth criterion was maximal suppression (at any dose), which represented the magnitude of suppression which was attainable regardless of the dose required to achieve it. […] The sixth criterion to be determined is the Log P partition coefficient, which is a predictor of lipophilicity. For this, the inventors have used the method of Ghose and Crippen to calculate the predicted octanol-water partition coefficient (J. Comp. Chem. 9, 80(1988)). While this is only an estimate of potential skin penetration, the analysis was carried out because it helps in prioritizing likelihood of topical effectiveness, in theory. The seventh criterion was an analysis of toxicity utilizing a fluorescence viability probe (CellTiter-Fluo™ Cell Viability Assay (Promega)). Interpretation of this endpoint is complicated by the fact that it represents a composite of the variation between drug-treated and control divided by the standard error The results shown in Table 1 indicate 34 candidate molecules which satisfied all of the criteria outlined above. […] Most of their potencies ranged slightly below or above 1 uM. While the lipophilicity scores remain imperfect predictors of skin penetration capability. However, numbers of >3 can be more likely to penetrate.

SMILES | Z-Score [1] | Viability z-score (treated minus control, divided by standard error) [2] | IC50 [1] | Conc. At Maximal Activity [1] | Maximal Activity [1]
O=c1[nH]c(=O)n(Cc2ccco2)c2c1C(C(F)(F)F)(C(F)(F)F)N=C(c1ccc(F)cc1)N2 [7-(4-fluorophenyl)-1-(2-furylmethyl)-5,5-bis(trifluoromethyl)-5,8-dihydropyrimido[4,5-d]pyrimidine-2,4(1H,3H)-dione] | −8.791 | −2.0352 | – | – | –
N#CC(C#N)=C(Nc1ccccc1Cl)SCc1cccc(F)c1 [{[(2-chlorophenyl)amino][(3-fluorobenzyl)thio]methylene}malononitrile] | −10.3064 | −1.5092 | – | – | –
CC(C)(C)[C@H]1CC[C@@]2(CC1)[C@@H](C#N)[C@]2(C#N)C(=O)c1ccccc1 [(1S,2R,3S,6S)-1-benzoyl-6-tert-butylspiro[2.5]octane-1,2-dicarbonitrile] | −11.0899 | 0.4824 | 5.69 µM | 1.95E−05 | −274.1
Cc1ccc(C)c(C(Nc2ccccn2)c2cc(Cl)c3cccnc3c2O)c1 (stereo not drawn) [5-chloro-7-[(2,5-dimethylphenyl)(pyridin-2-ylamino)methyl]quinolin-8-ol] | −8.461 | −0.8893 | – | – | –
O=C(O)CCSc1nc2ccccc2s1 [3-(1,3-benzothiazol-2-ylthio)propanoic acid] | −9.79 | −1.5092 | – | – | –
O=C(O)COc1cccc(-c2nc3ccccc3s2)c1 [[3-(1,3-benzothiazol-2-yl)phenoxy]acetic acid] | −11.9101 | −0.0206 | – | – | –
COc1ccc2c(c1)OC1COc3cc(OC)c(OC)cc3C1C2=O (stereo not drawn) [2,3,9-trimethoxy-6a,12a-dihydrochromoeo[3,4-b]chromen-12(6H)-one] | −9.245 | −4.2731 | 5.38 µM | 1.20E−05 | −320.4
O=C(CCSc1nc(-c2ccccc2)cs1)Nc1ccccc1 [N-phenyl-3-[(4-phenyl-1,3-thiazol-2-yl)thio]propanamide] | −10.8255 | −0.2442 | – | – | –
COc1ccc([N+](=O)[O-])cc1NC(=O)COc1ccc(C(C)(C)C)cc1Br [2-(2-bromo-4-tert-butylphenoxy)-N-(2-methoxy-5-nitrophenyl)acetamide] | −12.0562 | −1.6406 | – | – | –
Cc1oc2c(c1C(=O)N1CCC(C)CC1)C(=O)c1ccccc1C2=O [2-methyl-3-[(4-methylpiperidin-1-yl)carbonyl]naphtho[2,3-b]furan-4,9-dione] | −9.924 | 0.1575 | – | – | –
CCOc1ccc(OCC(=O)Nc2cccc(C(=O)O)c2)cc1 [3-{[(4-ethoxyphenoxy)acetyl]amino}benzoic acid] | −9.9 | −1.5092 | – | – | –
Clc1ccc(C2=NN=C(N3CCCC3)SC2)cc1 [5-(4-chlorophenyl)-2-pyrrolidin-1-yl-6H-1,3,4-thiadiazine] | −9.961 | −0.2442 | – | – | –
c1ccc(-c2cnc3nonc3n2)cc1 [5-phenyl[1,2,5]oxadiazolo[3,4-b]pyrazine] | −9.989 | −0.0206 | – | – | –
Cc1oc(-c2ccc3c(c2)OCCO3)cc1C(=O)NCC(=O)O [N-[5-(2,3-dihydro-1,4-benzodioxin-6-yl)-2-methyl-3-furoyl]glycine] | −10.0065 | −0.0206 | – | – | –
O=C(NCCCc1ccccc1)N1c2ccccc2Sc2ccccc21 [N-(3-phenylpropyl)-10H-phenothiazine-10-carboxamide] | −9.495 | −4.128 | – | – | –
